Assay results reported in patent US20040142961A1, “Utilization of substituted imidazo[1,2-a]-pyridine compounds in pharmaceutical formulations” (priority 2001, published 2004).

Biological target: T1, nitric oxide synthase (Rattus norvegicus, UniProt P29476)
T1 construct: the supernatant was then decanted and frozen in portions; from tissue; host or cells: rat cerebellum, homogenate supernatant after 20,000 g
Test: HTS NO synthase assay
Type: biochemical
Settings: 10 μM test compound; enzyme from rat cerebellum; [3H]arginine substrate; read-out: Inhibition of nitric oxide synthase (10 μM) in per cent
Method: This assay allows the determination of the percentage inhibition of NO synthase by a compound of formula I employed according to the invention by measuring the NO synthase activity under the action of the compound. In this procedure, NO synthase is mixed together with radioactively labelled arginine and the particular compound of formula I under suitable conditions. After interruption of the NO formation reaction at a given point in time, the amount of unreacted arginine is determined directly or indirectly. Comparison of this amount with the amount of arginine remaining from the mixture of NO synthase and arginine free of the test compound of formula I and under otherwise identical conditions gives the percentage inhibition of NO synthase by the test compound. This assay can be carried out as follows:
(a) incubation of NO synthase with labelled arginine as the substrate in a reaction vessel,
(b) separation of the labelled arginine from labelled citrulline formed as the product of the enzymatic reaction at a point in time at which the concentration of citrulline is increasing, and
(c) measurement of the amount of arginine separated in each case.
The separation is carried out through a filter plate membrane.
In this HTS NO synthase assay, radioactive arginine is used as the substrate. The assay volume can be chosen in the range between 25 μl and 250 μl, depending on the nature of the microtiter plate (MTP). Cofactors and coenzymes are added, depending on the enzyme source used. The incubation of the batches in this microtiter plate (assay MTP) according to step (a) is carried out at room temperature for between 5 and 60 minutes, depending on the enzyme activity (units) used. At the end of the incubation (step (a)), the plate is placed in a cell harvester equipped with an MTP which has a cation exchanger membrane as the filter base (filter MTP). All the batches of the assay MTP are transferred into this filter MTP and filtered with suction over a cation exchanger filter plate, i.e., a filter paper loaded with phosphate groups. The filter MTP is then washed with buffer or water. Using this procedure, the arginine substrate which remains is bound to the cation exchanger, while the radioactive citrulline formed enzymatically is washed out quantitatively. After drying of the filter MTP and addition of scintillation liquid, the bound arginine can be counted on a scintillation counter. An NO synthase reaction which has not been inhibited is reflected in a low radioactivity. An inhibited enzyme reaction means that the radioactive arginine has not been reacted. That is to say, a high radioactivity is found on the filter. […]
The plate was then dried for 1 hour at 60° C. in a drying cabinet. […] After a waiting time of 1 hour, the plate was measured on a β-counter.

inhibition at 10 µM	SMILES
39%	COc1ccc(-c2cn3ccc(C)cc3n2)cc1 [Example 1, 2-(4-Methoxy-phenyl)-7-methyl-imidazo[1,2-a]pyridine]
89%	Cc1ccn2cc(C(C)(C)C)nc2c1 [Example 4, 2-tert-Butyl-7-methyl-imidazo[1,2-a]pyridine]
68%	Cc1ccn2cc(C)nc2c1 [Example 2, 2,7-Dimethyl-imidazo[1,2-a]pyridine]
53%	Cc1ccn2ccnc2c1 [Example 3, 7-Methyl-imidazo[1,2-a]pyridine]
